{
  "source": "patent EP0850306B1",
  "about": "“LACCASES WITH AN ALTERED pH ACTIVITY PROFILE” (Novozymes Biotech, Inc., priority 1995, dated 1997)",
  "key": {"[1]": {"biological_target": "T1, Myceliophthora thermophila laccase (MtL, lcc-1), wild type (pRaMB17), SEQ ID NOS:26 and 27 (Thermothelomyces thermophilus, UniProt G2QG31)", "T1 sequence (G2QG31 48-602)": "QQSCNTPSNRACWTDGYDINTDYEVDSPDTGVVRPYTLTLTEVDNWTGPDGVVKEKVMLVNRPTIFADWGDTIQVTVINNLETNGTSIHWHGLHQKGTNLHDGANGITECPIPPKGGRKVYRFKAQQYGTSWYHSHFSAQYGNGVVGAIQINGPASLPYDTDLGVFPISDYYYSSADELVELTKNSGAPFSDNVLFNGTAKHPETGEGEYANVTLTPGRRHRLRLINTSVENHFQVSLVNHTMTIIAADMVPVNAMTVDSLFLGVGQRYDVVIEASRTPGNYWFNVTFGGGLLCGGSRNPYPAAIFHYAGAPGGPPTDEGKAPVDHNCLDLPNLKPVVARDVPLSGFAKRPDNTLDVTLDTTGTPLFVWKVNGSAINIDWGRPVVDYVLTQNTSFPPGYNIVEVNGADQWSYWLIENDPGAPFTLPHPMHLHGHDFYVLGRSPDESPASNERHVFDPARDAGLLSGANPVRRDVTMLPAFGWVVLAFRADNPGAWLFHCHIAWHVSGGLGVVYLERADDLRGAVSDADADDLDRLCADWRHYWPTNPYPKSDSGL", "assay": "Laccase substrate oxidation kinetics (Km, kcat), MtL wild type", "format": "biochemical", "conditions": "8 mM MES-NaOH buffer, pH 5.3, spectroscopic", "description": "(§1) The absorbance at 530 nm is measured over time in a UV-VIS spectrophotometer. One laccase unit (LACU) is defined as the amount of enzyme which oxidizes one µmole of substrate per minute at 30°C.\n(§2) Km and kcat are obtained from the initial rate (v), enzyme concentration (E), and substrate concentration (S) in accordance to the equation v = kcat ES/( Km + S) by non-linear regression fitting using the Prizm program (GraphPad, San Diego, CA). […] The O2 concentration in air-saturated buffer solution is assumed as the same in plain water (0.28 mM)."}, "[2]": {"biological_target": "T2, Rhizoctonia solani laccase isozyme 4 (RsL, rsl4), wild type (pJiWa59), SEQ ID NOS:24 and 25 (Thanatephorus cucumeris, UniProt Q02081)", "T2 construct": "made in house; host or cells: Aspergillus oryzae HowB104", "T2 sequence (Q02081 20-531)": "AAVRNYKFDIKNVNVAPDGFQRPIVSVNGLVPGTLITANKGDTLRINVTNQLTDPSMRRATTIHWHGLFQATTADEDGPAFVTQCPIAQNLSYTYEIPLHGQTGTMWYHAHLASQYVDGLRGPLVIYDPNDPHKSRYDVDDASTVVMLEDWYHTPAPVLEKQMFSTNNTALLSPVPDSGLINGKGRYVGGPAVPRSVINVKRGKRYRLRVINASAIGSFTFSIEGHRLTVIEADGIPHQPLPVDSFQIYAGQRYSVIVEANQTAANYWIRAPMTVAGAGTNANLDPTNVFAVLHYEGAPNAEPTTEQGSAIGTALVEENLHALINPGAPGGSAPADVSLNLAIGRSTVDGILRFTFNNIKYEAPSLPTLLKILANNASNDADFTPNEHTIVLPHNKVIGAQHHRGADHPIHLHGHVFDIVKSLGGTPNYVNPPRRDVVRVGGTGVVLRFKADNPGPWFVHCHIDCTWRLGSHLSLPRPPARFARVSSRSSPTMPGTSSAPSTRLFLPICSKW", "assay": "Laccase substrate oxidation kinetics (Km, kcat), RsL wild type", "format": "biochemical", "conditions": "read-out: Km (ABTS); 8 mM MES-NaOH buffer, pH 5.3; spectroscopic", "description": "as §1, §2"}, "[3]": {"biological_target": "T3, Myceliophthora thermophila laccase (MtL) mutant \"T\", V509L/S510E/G511A (pBANe22T) (Thermothelomyces thermophilus, UniProt G2QG31, G554A/S553E/V552L)", "T3 sequence (G2QG31 48-602 V552L/S553E/G554A)": "T1 sequence (G2QG31 48-602)", "assay": "Laccase substrate oxidation kinetics (Km, kcat), MtL mutant \"T\"", "format": "biochemical", "conditions": "read-out: Km (ABTS); 8 mM MES-NaOH buffer, pH 5.3; spectroscopic", "description": "as §1, §2"}, "[4]": {"system": "COc1cc(C=NN=Cc2cc(OC)c(O)c(OC)c2)cc(OC)c1O", "assay": "Laccase substrate oxidation kinetics (Km, kcat), MtL mutant \"T\"", "format": "biochemical, Myceliophthora thermophila", "conditions": "other: 8 mM MES-NaOH buffer, pH 5.3, spectroscopic", "description": "as §1, §2"}},
  "note": "Where two headings read alike, the source gives them in different places.",
  "data": [
    {"molecule": "CCn1c(=NN=c2sc3cc(S(=O)(=O)O)ccc3n2CC)sc2cc(S(=O)(=O)O)ccc21", "note": "[ABTS, 2,2'-azinobis(3-ethylbenzthiazoline-6-sulfonic acid)]", "values": [
      {"measurement": "Km", "setting": "[1]; read-out: Km (ABTS)", "value": "110 ± 20", "unit": "µM"},
      {"measurement": "Km", "setting": "[2]", "value": "52 ± 6", "unit": "µM"},
      {"measurement": "Km", "setting": "[3]", "value": "11 ± 2", "unit": "µM"}
    ]},
    {"molecule": "COc1cc(C=NN=Cc2cc(OC)c(O)c(OC)c2)cc(OC)c1O", "note": "[SGZ, syringaldazine]", "values": [
      {"measurement": "kcat (SGZ)", "setting": "[1]", "value": "75 ± 3.33", "unit": "s⁻¹"},
      {"measurement": "Km", "setting": "[1]; read-out: Km (SGZ)", "value": "1.4 ± 0.2", "unit": "µM"}
    ]},
    {"molecule": "Myceliophthora thermophila laccase (MtL) mutant \"T\", V509L/S510E/G511A (pBANe22T) (Thermothelomyces thermophilus ATCC 42464; G554A/S553E/V552L)", "values": [
      {"measurement": "Km", "setting": "[4]", "value": "0.9 ± 0.2", "unit": "µM"},
      {"measurement": "kcat", "setting": "[4]", "value": "6 ± 0.333", "unit": "s⁻¹"}
    ]}
  ]
}
